According to patent US10561735B2, “Solid formulations of liquid biologically active agents” (Paladin Labs Inc., priority 2004, dated 2020):
Converted amounts (≈) assume the structure as drawn.

How the values were obtained:
[1] = Reconstitution of lyophilized cake: time, appearance, visual stability (no precipitation or phase separation); type: physicochemical; conditions: PVP-PLA 90 mg/mL, 75 mM sodium phosphate buffer pH 7.4
Description: PVP-PDLLA (POLYMER 1 and POLYMER 2) samples were dissolved in mixtures of water and various amounts of tert-butyl alcohol (TBA). Propofol is then added to the PVP-PDLLA solution. Water is then added to the TBA/PVP-PDLLA/propofol solution to the desired final volume. Final TBA concentration in these solutions was 10-30%. Drug loading levels, % w/w of propofol/(propofol PVP-PDLLA), were also varied from 5, 7, 8, 10, 12, 15 and 20%. Solutions were then frozen in a dry ice/acetone bath and lyophilized for at least 24 hours.
PVP-PDLLA (POLYMER 1) is dissolved directly in water at concentrations between 100 to 350 mg/mL. Propofol is added to the PVP-PDLLA solution and mixed until a homogenous solution is obtained. The solution is then diluted to a concentration of 1% w/v of propofol. 7, 10 and 12% w/w drug loading levels were tested. All solutions were then filtered using 0.2 μm sterile filters and frozen in acetone/dry ice bath or in −80° C. freezer for at least 4 hours before being lyophilized for 48 hours. Solid lyophilized cakes of 7, 10 and 12% w/w were reconstituted by adding water for injection.
PVP-PDLLA (lot # POLYMER 1, POLYMER 2, POLYMER 3, POLYMER 4 and POLYMER 5) is dissolved directly in 100 mM sodium phosphate buffer, pH 7.4, at concentrations between 100 to 350 mg/mL. Propofol is added to the PVP-PDLLA solution and mixed until a homogenous solution is obtained. […]

humans or animals = conditions: cited from earlier work
[2] = room temperature; cited from earlier work

| SMILES | appearance after reconstitution by addition of water [1] | half life (humans or animals; in vivo) | time to hypnosis from the start of an administration (humans or animals; intravenous injection of a therapeutic dose) | aqueous solubility [2] |
| --- | --- | --- | --- | --- |
| OCCOc1ccccc1 [2-phenoxyethanol] | Clear solutions | – | – | – |
| CC(C)c1cccc(C(C)C)c1O [Propofol, 2,6-bis-(1-methylethyl)phenol] | – | 10 to 15 min | ≤ 40 s | ~154 µg/mL (≈ 864 µM) |
| Cc1ccc2ccccc2n1 [quinaldine] | Clear solutions | – | – | – |
